In the supplement of paper PMC10307832:

Assays:
Experiment in all cases: relative viability (nuclei count vs DMSO), 5 days (fraction); higher = more cells survive
Ruxolitinib + Olaparib = compound: N#CC[C@H](C1CCCC1)n1cc(-c2ncnc3[nH]ccc23)cn1 [Ruxolitinib] + O=C(c1cc(Cc2n[nH]c(=O)c3ccccc23)ccc1F)N1CCN(C(=O)C2CC2)CC1 [Olaparib] (partner 8 µM)
Procedure, shortened: (§1)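 Lung cancer cell lines in 1536-well plates were dosed by pin tool the day after seeding, either with one drug alone or with a fixed anchor-drug dose plus five library-drug doses (not always all listed) in √10 steps. After 5 days, cells were fixed and their nuclei stained in one step (final 0.05% Triton X-100, 1% formaldehyde, 1 ug/ml Hoechst), then counted on 4× images. Relative viability is the nuclei count in treated wells divided by that in vehicle wells. Values are medians of duplicate plates.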

VE-821 + Trametinib = compound: CS(=O)(=O)c1ccc(-c2cnc(N)c(C(=O)Nc3ccccc3)n2)cc1 [VE-821] + CC(=O)Nc1cccc(-n2c(=O)n(C3CC3)c(=O)c3c(Nc4ccc(I)cc4F)n(C)c(=O)c(C)c32)c1 [Trametinib] (partner 0.02 µM)
Procedure, shortened: as §1

Ruxolitinib + Phenformin = compound: N#CC[C@H](C1CCCC1)n1cc(-c2ncnc3[nH]ccc23)cn1 [Ruxolitinib] + N=C(N)NC(=N)NCCc1ccccc1 [Phenformin] (partner 250 µM)
Procedure, shortened: as §1

Ruxolitinib + Navitoclax = compound: N#CC[C@H](C1CCCC1)n1cc(-c2ncnc3[nH]ccc23)cn1 [Ruxolitinib] + CC1(C)CCC(c2ccc(Cl)cc2)=C(CN2CCN(c3ccc(C(=O)NS(=O)(=O)c4ccc(N[C@H](CCN5CCOCC5)CSc5ccccc5)c(S(=O)(=O)C(F)(F)F)c4)cc3)CC2)C1 [Navitoclax] (partner 0.5 µM)
Procedure, shortened: as §1

Row | Cell Line | relative viability (Ruxolitinib + Olaparib; first compound 0.08 µM) | relative viability (Ruxolitinib + Olaparib; first compound 0.253 µM) | relative viability (Ruxolitinib + Olaparib; first compound 0.8 µM) | relative viability (Ruxolitinib + Olaparib; first compound 2.53 µM) | relative viability (Ruxolitinib + Olaparib; first compound 8 µM) | relative viability (VE-821 + Trametinib; first compound 0.08 µM) | relative viability (VE-821 + Trametinib; first compound 0.253 µM) | relative viability (VE-821 + Trametinib; first compound 0.8 µM) | relative viability (VE-821 + Trametinib; first compound 2.53 µM) | relative viability (VE-821 + Trametinib; first compound 8 µM) | relative viability (Ruxolitinib + Phenformin; first compound 0.08 µM) | relative viability (Ruxolitinib + Phenformin; first compound 0.253 µM) | relative viability (Ruxolitinib + Phenformin; first compound 0.8 µM) | relative viability (Ruxolitinib + Phenformin; first compound 2.53 µM) | relative viability (Ruxolitinib + Phenformin; first compound 8 µM) | relative viability (Ruxolitinib + Navitoclax; first compound 0.08 µM) | relative viability (Ruxolitinib + Navitoclax; first compound 0.253 µM) | relative viability (Ruxolitinib + Navitoclax; first compound 0.8 µM) | relative viability (Ruxolitinib + Navitoclax; first compound 2.53 µM) | relative viability (Ruxolitinib + Navitoclax; first compound 8 µM)
1 | 201T | 0.941 | 0.964 | 0.972 | 1.01 | 0.894 | 0.743 | 0.721 | 0.725 | 0.734 | 0.693 | 0.44 | 0.455 | 0.473 | 0.429 | 0.503 | 1.25 | 1.31 | 1.44 | 1.48 | 1.36
2 | A549 | 0.226 | 0.36 | 0.35 | 0.331 | 0.0796 | – | – | – | – | – | 0.0714 | 0.144 | 0.198 | 0.127 | 0.15 | 1.2 | 1.16 | 1.21 | 0.961 | 0.508
3 | A-427 | 0.749 | 0.732 | 0.739 | 0.67 | 0.632 | 0.868 | 0.676 | 0.812 | 0.686 | 0.495 | 0.291 | 0.3 | 0.338 | 0.281 | 0.276 | 1 | 0.939 | 0.959 | 0.917 | 0.8
4 | ABC-1 | – | 0.886 | 0.892 | 0.505 | 1.02 | – | – | – | – | – | – | 0.282 | 0.316 | 0.287 | 0.294 | – | – | – | – | –
5 | BEN | 1.16 | 1.27 | 1.24 | 0.96 | 0.994 | 1.08 | 1.02 | 0.982 | 1.14 | 1.09 | 0.232 | 0.281 | 0.244 | 0.239 | 0.255 | 0.0601 | 0.0767 | 0.0749 | 0.0665 | 0.0571
6 | CAL-12T | 0.627 | 0.779 | 0.756 | 0.673 | 0.67 | 0.372 | 0.355 | 0.325 | 0.322 | 0.325 | 0.437 | 0.674 | 0.596 | 0.444 | 0.408 | 1.1 | 1.23 | 1.14 | 1.15 | 1.07
7 | COR-L23 | 0.369 | 0.371 | 0.376 | 0.329 | 0.272 | 0.658 | 0.658 | 0.587 | 0.759 | 0.535 | 0.457 | 0.407 | 0.45 | 0.439 | 0.354 | 1.03 | 1.1 | 1.21 | 0.907 | 0.638
8 | COR-L 105 | – | 0.614 | 0.652 | 0.614 | 0.606 | 0.463 | 0.412 | 0.483 | 0.4 | 0.449 | 0.409 | 0.495 | 0.425 | 0.392 | 0.374 | 0.707 | 0.701 | 0.89 | 0.694 | 0.515
9 | Calu-6 | 0.575 | 0.62 | 0.577 | – | 0.39 | – | – | – | – | – | – | – | – | – | – | 0.836 | 0.858 | 0.862 | 0.767 | 0.294
10 | ChaGo-K-1 | 0.42 | 0.445 | 0.379 | 0.347 | 0.319 | 0.981 | 0.932 | 0.866 | 0.969 | 0.851 | 0.45 | 0.401 | 0.414 | 0.449 | 0.446 | – | 0.861 | 0.796 | 0.986 | 0.734
11 | EBC-1 | 0.718 | 0.726 | 0.77 | 0.708 | 0.533 | – | – | – | – | – | – | – | – | – | – | 0.372 | 0.435 | 0.402 | 0.347 | 0.237
12 | EKVX | – | 0.837 | 0.947 | 0.731 | 0.759 | 0.347 | 0.317 | 0.298 | 0.376 | 0.3 | 0.275 | 0.209 | 0.204 | 0.221 | 0.235 | 1 | 0.872 | 0.881 | 0.821 | 0.912
13 | EMC-BAC-2 | 0.465 | 0.482 | 0.478 | 0.478 | 0.406 | 0.925 | 0.856 | 0.984 | 1.02 | 0.966 | 0.534 | 0.471 | 0.555 | 0.44 | 0.353 | 1.11 | 1.13 | 1.18 | 1.09 | 1.06
14 | EPLC-272H | 0.829 | 0.922 | 0.818 | 0.544 | 0.344 | 0.291 | 0.28 | 0.273 | 0.289 | 0.27 | 0.297 | 0.323 | 0.306 | 0.278 | 0.269 | 1.48 | 1.14 | 1.31 | 1.05 | 0.954
15 | H3255 | 0.532 | 0.547 | 0.539 | 0.443 | 0.457 | 0.666 | 0.646 | 0.619 | 0.88 | 0.63 | 0.232 | 0.339 | 0.289 | 0.295 | 0.405 | 0.248 | 0.393 | 0.474 | 0.423 | 0.425
16 | HARA | 1.17 | 0.841 | 1.04 | 0.793 | 0.584 | 0.686 | 1.08 | 0.553 | 0.767 | 0.608 | 0.431 | 0.536 | 0.516 | 0.391 | 0.319 | 1.14 | 1.11 | 1.17 | 1.14 | 1.25
17 | HCC-15 | 0.72 | 0.692 | 0.721 | 0.537 | 0.454 | 0.354 | 0.334 | 0.39 | 0.499 | 0.487 | 0.423 | 0.444 | 0.494 | 0.393 | 0.399 | 0.688 | 0.686 | 0.699 | 0.629 | 0.567
18 | HCC-44 | 0.958 | 0.889 | 0.978 | 0.922 | 0.995 | 1.11 | 1.03 | 1.12 | 1.13 | 0.961 | 0.103 | 0.143 | 0.228 | 0.168 | 0.216 | 0.991 | 1.14 | 0.966 | 0.664 | 0.394
